One data set has as its system healthy subjects. Kind of data set: Safety assessment in healthy subjects. The settings on record: single 0.4 U/kg s.c. doses, healthy male subjects.
Data set [1] has as its system healthy volunteers. Kind of data set: 24 h euglycemic clamp, glucose infusion rate (pharmacodynamics). It is filed as in vivo, human. The following applies: single 0.4 U/kg s.c., N = 38; for AUCGIR(0–24 h), geometric mean / Time to GIRmax / AUCGIR(0–12 h), geometric mean / AUCGIR(12–24 h), geometric mean / GIRmax, geometric mean: healthy volunteers; for AUCGIR(0–24 h), geometric mean: 24 h euglycemic clamp 0.3 mmol/L below fasting glucose; for AUCGIR(0–24 h), geometric mean / AUCGIR(0–12 h), geometric mean / AUCGIR(12–24 h), geometric mean / GIRmax, geometric mean: raw GIR not smoothed; for Time to GIRmax / AUCGIR(0–12 h), geometric mean / AUCGIR(12–24 h), geometric mean / GIRmax, geometric mean: 24 h euglycemic clamp; for Time to GIRmax: median (range); for AUCGIR(0–12 h), intra-subject variability / AUCGIR(0–24 h), intra-subject variability / AUCGIR(12–24 h), intra-subject variability / GIRmax, intra-subject variability: replicate crossover. The text has this:
This PK/PD comparative study was a randomized, double-blind, single-dose, two-treatment, four-period, replicate crossover, euglycemic clamp study. Subjects were randomly assigned to one of two dosing sequences and received 0.4 U/kg reference drug on two occasions and 0.4 U/kg test drug on two occasions. The dosing nurses were not blind to the treatment allocation, whereas the subjects and the clamping operators (who adjusted the glucose infusion rate) were blinded. Subjects were admitted to the clinical research unit on the night before each period. On day 1 of each period, all doses of test and reference drug were administered by subcutaneous injection, and then, subjects underwent a euglycemic clamp procedure until 24 h post-dose. There was a washout period of 10–14 days between study periods. For each subject, the 24 h euglycemic clamp procedure aimed to maintain the clamp value at 0.3 mmol/L below the subject’s mean fasting glucose level in each period. Each subject began fasting from 20:00 on the day prior to dosing in each period and continued fasting during the clamp study. Body weight and vital signs were measured after the bladder was emptied, and the clamp study was performed after resting for at least 30 min. One upper limb was cannulated for the infusion of glucose (20% dextrose solution in water). The contralateral upper limb was cannulated for PK blood sample collection and blood glucose concentration measurement. Blood glucose level was measured by using an automatic blood glucose analyzer every 20 min from 0 to 3.0 h, every 10 min from 3.0 to 12.0 h, every 15 min from 12.0 to 16.0 h, every 30 min from 16.0 to 21.0 h, and every 15 min from 21.0 to 24.0 h. After each glucose measurement, the glucose infusion rate (GIR) was manually adjusted by the operator based on the experience of the change rate of blood glucose to maintain the blood glucose concentration within ±10% of the clamp target. During the entire procedure, subjects should stay awake, decumbent, or semi-decumbent as much as possible and relieve themselves in time with the help of medical staff. PD parameters were calculated with WinNonlin Version 8.2 using the trapezoidal rule. Raw GIR profiles were not smoothed before calculation of PD parameters. Area under the glucose infusion rate–time curve (AUCGIR(0–24 h)) and peak of glucose infusion rate (GIRmax) were measured as primary endpoints. Partial area under the glucose infusion rate–time curve (AUCGIR(0–12 h) and AUCGIR(12–24 h)) was the secondary PD parameter. Another meaningful PD endpoint was time to GIRmax. The primary and secondary PD parameters, AUCGIR(0–24 h), GIRmax, AUCGIR(0–12 h), and AUCGIR(12–24 h), were log transformed prior to analysis. The same linear mixed-effects model as PK comparison was used for the PD comparison. For each PD parameter, the difference in geometric means along with the 90% CIs was back transformed to produce the ratio of geometric means and the CI comparing the test drug to reference drug. PD similarity was to be concluded if the […] for both primary and secondary PD parameters were contained within the interval of 80.00%–125.00%. Intra-subject and inter-subject variability were reported for each primary and secondary PD parameters.

For a further data set, the system named is endogenous insulin. Description: Plasma C-peptide reduction during clamp (suppression of endogenous insulin). It is filed as in vivo, human. The settings on record: single 0.4 U/kg s.c., healthy volunteers, plasma C-peptide by ELISA during 24 h clamp, mean ± SD. The method, then:
In each period, serial blood samples for the quantification of insulin glargine, its metabolites (M1 and M2), and C-peptide were collected at 30 min prior to dosing and 0, 1, 3, 5, 6, 7, 8, 9, 10, 11, 12, 13, 14, 16, 18, 21, and 24 h after dose using vacuum tubes with an EDTA anticoagulant.
C-peptide in plasma was quantified by a fully validated enzyme-linked immunosorbent assay (ELISA) method, of which the calibration range was 28.9–925 pmol/L.
C-peptide concentration was measured in parallel to insulin concentrations throughout the experiment to compare the extent and consistency of suppression of endogenous insulin between the two drugs.
The quality of the performance of the clamp study was estimated from two aspects. On one hand, the blood glucose level during the entire clamping process was evaluated by calculating the mean difference between the blood glucose concentration and the clamp target, mean square deviation, and coefficient of variation of the blood glucose concentrations. On the other hand, the plasma C-peptide concentration profiles and the ratio of C-peptide reduction were evaluated.
On the technique in general: An ELISA detects its analyte on a solid surface through an enzyme-linked reagent.

Details of data set [2]: species or system human. The settings on record: in vivo, sc; for Tmax of the parent insulin glargine: human. The text has this: This PK/PD comparative study was a randomized, double-blind, single-dose, two-treatment, four-period, replicate crossover, euglycemic clamp study. Subjects were randomly assigned to one of two dosing sequences and received 0.4 U/kg reference drug on two occasions and 0.4 U/kg test drug on two occasions. The dosing nurses were not blind to the treatment allocation, whereas the subjects and the clamping operators (who adjusted the glucose infusion rate) were blinded. Subjects were admitted to the clinical research unit on the night before each period. On day 1 of each period, all doses of test and reference drug were administered by subcutaneous injection, and then, subjects underwent a euglycemic clamp procedure until 24 h post-dose. There was a washout period of 10–14 days between study periods. The test drug, manufactured by Wanbang Biopharmaceuticals, was supplied as a 100 U/ml solution in 3 ml cartridges. The reference drug was procured commercially as cartridges. The test drug or reference drug was administrated by subcutaneous injection using a pen about 5 cm from the left or right side of the umbilicus, as a 0.4 U/kg dose. In each period, serial blood samples for the quantification of insulin glargine, its metabolites (M1 and M2), and C-peptide were collected at 30 min prior to dosing and 0, 1, 3, 5, 6, 7, 8, 9, 10, 11, 12, 13, 14, 16, 18, 21, and 24 h after dose using vacuum tubes with an EDTA anticoagulant. Concentrations of insulin glargine and its metabolites (M1 and M2) in plasma were simultaneously quantified by an ultra-high-performance liquid chromatography tandem mass spectrometry (UHPLC-MS/MS) method developed and fully validated before the clinical sample analysis. […] Pharmacokinetic parameters were calculated with WinNonlin Version 8.2 (Pharsight Corporation, Mountain View, California, United States) using a non-compartmental analysis method. […] Time to reach Cmax (Tmax) was also calculated. […]

Data set [3] is described as follows: Matrix stability of insulin glargine in whole blood and plasma. It is filed as in vitro ADME. The following applies: human whole blood and plasma; addressed by strict temperature control and EDTA anticoagulant during sample collection and pre-treatment. The text has this: The bioanalytical method applied in this study was with a relatively higher sensitivity of 75.0 pg/ml for the parent insulin glargine ([Bhatia et al., 2018]; [Crutchlow et al., 2018]). The instability of the insulin glargine in whole blood and plasma was addressed by strict temperature control and selection of EDTA anticoagulant during sample collection and pre-treatment. […] After subcutaneous injection, the concentrations of parent insulin glargine increased to a relatively high level within 3 h, and then, a relatively flat concentration–time profile lasting for at least 12 h post-dose was observed, which implied a prolonged absorption of insulin glargine.

For data set [4] the following is noted: acidic pH; precipitates in the subcutaneous tissue after injection to form a depot; ref Levien et al., 2002; cited from earlier work. The text has this: Then, the drug is slowly released from the depot. […] These observed phenomena are consistent with those of a previous study ([Bolli et al., 2012]). Based on the comparison ...
The subject of data set [5] is healthy volunteers. Description: 24 h euglycemic clamp, glucose infusion rate (pharmacodynamics). It counts as in vivo, human. The following applies: single 0.4 U/kg s.c., linear mixed-effects model, N = 38.

Method for healthy subjects: Prior to dose and at various time points post-dose and post-study, assessments of safety and tolerability were conducted by monitoring adverse events (AEs), vital signs, physical examinations, laboratory tests (hematology, blood biochemistry, urinalysis, and coagulation function), and 12-lead ECG.

As to Lantus [Reference drug], in the data set with healthy subjects, the “Clinically significant changes in vital signs, physical examinations, laboratory tests or 12-lead ECG” value is on record as “no changes” and the “Safety profiles with regard to AEs” value is “comparable”. Further, in the data set on healthy volunteers [1], the “AUCGIR(0–24 h), geometric mean” value is reported as 34.4 mg/kg/min·h; the “Time to GIRmax” value is recorded as 11.8 (4, 19.0); the “AUCGIR(0–12 h), geometric mean” value is reported as 13.45 mg/kg/min·h; the “AUCGIR(12–24 h), geometric mean” value is reported as 21.19 mg/kg/min·h. In addition, in the data set with healthy volunteers [1], the “GIRmax, geometric mean” value was found to be 2.54 mg/kg/min; the “AUCGIR(0–12 h), intra-subject variability” value came out at 39.0%; the “AUCGIR(0–24 h), intra-subject variability” value was 28.3%; the “AUCGIR(12–24 h), intra-subject variability” value is reported as 20.2%. Further, the “GIRmax, intra-subject variability” value with healthy volunteers [1] was determined as 25.5%. For the same substance, the “Ratio of C-peptide reduction” value with endogenous insulin is 57.5% ± 14.4. In data set [2], the “Tmax of the parent insulin glargine” value is reported as 3 (1,16) h.

Consider insulin glargine, for which the “Stability in whole blood and plasma” value in data set [3] is “instability”. In data set [2], the “Duration of relatively flat concentration–time profile post-dose” value is recorded as “at least 12 h”. Besides, in data set [4], the Solubility entry is “soluble at an acidic pH”.

On to “recombinant insulin glargine [Test drug]”, for which, in the data set with healthy volunteers [5], the “AUCGIR(0–12 h), ratio of geometric means test/reference” value turned out to be 100.52%; the “AUCGIR(0–24 h), ratio of geometric means test/reference” value worked out at 105.41%; the “AUCGIR(12–24 h), ratio of geometric means test/reference” value worked out at 105.91%; the “GIRmax, ratio of geometric means test/reference” value stood at 105.00%. In the data set on healthy volunteers [1], the “AUCGIR(0–24 h), geometric mean” value worked out at 36.3 mg/kg/min·h; the “Time to GIRmax” value is on record as 12.3 (3.85, 21.5); the “AUCGIR(0–12 h), geometric mean” value was 13.52 mg/kg/min·h; the “AUCGIR(12–24 h), geometric mean” value is given as 22.45 mg/kg/min·h. In the data set with healthy volunteers [1], the “GIRmax, geometric mean” value worked out at 2.66 mg/kg/min; the “AUCGIR(0–12 h), intra-subject variability” value is recorded as 70.7%; the “AUCGIR(0–24 h), intra-subject variability” value was 36.4%; the “AUCGIR(12–24 h), intra-subject variability” value was found to be 27.3%. Moreover, the “GIRmax, intra-subject variability” value with healthy volunteers [1] was determined as 26.5%. In addition, the “Ratio of C-peptide reduction” value in the data set on endogenous insulin was 56.5% ± 14.1. The “Tmax of the parent insulin glargine” value in data set [2] is 8 (1,16) h.
